In ChEMBL document CHEMBL1201862, “PubChem BioAssay data set” (2004):
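Following 48 hours of exposure in 96-well plates, responses at five concentrations were used to interpolate endpoints linearly. GI50 is the concentration that inhibits growth by half.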 Calls of active or inactive are those of the source. No stated cut-off is given here; in the data, active = GI50 up to about 1.1 µM and inactive = higher.

Columns and labels:
Experiment in all cases: growth of human tumour cells (NCI), 48 h
NCI/ADR-RES = system: NCI/ADR-RES
HOP-62 = system: HOP-62
NCI-H226 = system: NCI-H226
NCI-H460 = system: NCI-H460
DU-145 = system: DU-145
Hs-578T = system: Hs-578T
SK-MEL-28 = system: SK-MEL-28
SN12C = system: SN12C
A498 = system: A498
UO-31 = system: UO-31
SR = system: SR
U-251 = system: U-251
SF-268 = system: SF-268
A549 = system: A549
MCF7 = system: MCF7
OVCAR-3 = system: OVCAR-3
SNB-19 = system: SNB-19
LOX IMVI = system: LOX IMVI
UACC-257 = system: UACC-257
COLO 205 = system: COLO 205

Row | Compound | GI50 (NCI/ADR-RES) | GI50 (HOP-62) | GI50 (NCI-H226) | GI50 (NCI-H460) | GI50 (DU-145) | GI50 (Hs-578T) | GI50 (SK-MEL-28) | GI50 (SN12C) | GI50 (A498) | GI50 (UO-31) | GI50 (SR) | GI50 (U-251) | GI50 (SF-268) | GI50 (A549) | GI50 (MCF7) | GI50 (OVCAR-3) | GI50 (SNB-19) | GI50 (LOX IMVI) | GI50 (UACC-257) | GI50 (COLO 205)
1 | COc1cc(N(C)C)c(OC)cc1C=C1C=CC=C1 | 74.6 µM (inactive) | > 100 µM (inactive) | > 100 µM (inactive) | > 100 µM (inactive) | > 100 µM (inactive) | > 100 µM (inactive) | > 100 µM (inactive) | > 100 µM (inactive) | > 100 µM (inactive) | > 100 µM (inactive) | 61.2 µM (inactive) | > 100 µM (inactive) | > 100 µM (inactive) | > 100 µM (inactive) | > 100 µM (inactive) | > 100 µM (inactive) | > 100 µM (inactive) | – | – | –
2 | O=c1c(-c2ccc(Cl)cc2)nnc2n(Cc3ccccc3)c3ccccc3n12 | 52.7 µM (inactive) | 23.6 µM (inactive) | 23.7 µM (inactive) | 33.3 µM (inactive) | > 100 µM (inactive) | 24 µM (inactive) | 51.6 µM (inactive) | 82.2 µM (inactive) | 23 µM (inactive) | 44.4 µM (inactive) | > 100 µM (inactive) | 23.7 µM (inactive) | 23.3 µM (inactive) | 25.5 µM (inactive) | 60.7 µM (inactive) | – | 17.7 µM (inactive) | 82.6 µM (inactive) | 51.3 µM (inactive) | > 100 µM (inactive)
3 | COC(=O)Cc1ccc(Oc2nc3ccccc3nc2-c2cccs2)cc1 | 79.4 µM (inactive) | 38.5 µM (inactive) | 35.7 µM (inactive) | > 100 µM (inactive) | > 100 µM (inactive) | 39.8 µM (inactive) | > 100 µM (inactive) | > 100 µM (inactive) | – | > 100 µM (inactive) | > 100 µM (inactive) | 39.1 µM (inactive) | 36 µM (inactive) | > 100 µM (inactive) | > 100 µM (inactive) | > 100 µM (inactive) | 40.8 µM (inactive) | > 100 µM (inactive) | > 100 µM (inactive) | > 100 µM (inactive)
4 | CC1(C)OC[C@H](COCOP2(=O)Oc3ccc4ccccc4c3-c3c(ccc4ccccc34)O2)O1 | 18.3 µM (inactive) | 21.4 µM (inactive) | 18.7 µM (inactive) | 16.7 µM (inactive) | 17.6 µM (inactive) | 47.5 µM (inactive) | 13.3 µM (inactive) | 16.4 µM (inactive) | 16.9 µM (inactive) | 18.3 µM (inactive) | 16.7 µM (inactive) | 18 µM (inactive) | 16 µM (inactive) | 21.5 µM (inactive) | 3.48 µM (inactive) | 15.3 µM (inactive) | 19.1 µM (inactive) | – | – | –
5 | O=c1[nH]c2ccc(C(F)(F)F)cc2nc1Cc1ccccc1 | 18.5 µM (inactive) | 33 µM (inactive) | 17.7 µM (inactive) | 27.9 µM (inactive) | 34.4 µM (inactive) | 22.3 µM (inactive) | 39.7 µM (inactive) | – | 26.6 µM (inactive) | 37.3 µM (inactive) | > 100 µM (inactive) | 45.7 µM (inactive) | 35.2 µM (inactive) | – | 28.7 µM (inactive) | – | 53 µM (inactive) | 40 µM (inactive) | 67.1 µM (inactive) | 18.1 µM (inactive)
6 | COc1cc(S(=O)(=O)Nc2ccc(-c3csc(N4C(=O)C(Cl)C4c4cccc(Oc5ccccc5)c4)n3)cc2)ccc1Cl (stereo unspecified) | > 100 µM (inactive) | 38.3 µM (inactive) | 18.8 µM (inactive) | > 100 µM (inactive) | 21.7 µM (inactive) | > 100 µM (inactive) | 24.3 µM (inactive) | 15.5 µM (inactive) | 25.2 µM (inactive) | 21.2 µM (inactive) | 3.13 µM (inactive) | – | 15 µM (inactive) | > 100 µM (inactive) | 37.7 µM (inactive) | 58.5 µM (inactive) | > 100 µM (inactive) | 2.24 µM (inactive) | 39.6 µM (inactive) | 21.5 µM (inactive)
7 | COCc1cc2c(cc1/C(=C/[N+](=O)[O-])CS(=O)(=O)c1ccccc1)OCO2 | > 100 µM (inactive) | > 100 µM (inactive) | > 100 µM (inactive) | > 100 µM (inactive) | > 100 µM (inactive) | > 100 µM (inactive) | > 100 µM (inactive) | > 100 µM (inactive) | > 100 µM (inactive) | > 100 µM (inactive) | > 100 µM (inactive) | > 100 µM (inactive) | > 100 µM (inactive) | > 100 µM (inactive) | > 100 µM (inactive) | > 100 µM (inactive) | – | > 100 µM (inactive) | > 100 µM (inactive) | > 100 µM (inactive)
8 | [O-][S+](CCc1ccccc1)Nc1ccccc1 (stereo unspecified) | 58.5 µM (inactive) | > 100 µM (inactive) | > 100 µM (inactive) | > 100 µM (inactive) | > 100 µM (inactive) | 0.0406 µM (active) | > 100 µM (inactive) | > 100 µM (inactive) | – | > 100 µM (inactive) | > 100 µM (inactive) | > 100 µM (inactive) | > 100 µM (inactive) | > 100 µM (inactive) | > 100 µM (inactive) | > 100 µM (inactive) | > 100 µM (inactive) | > 100 µM (inactive) | 99.3 µM (inactive) | > 100 µM (inactive)
